From patent US10947188B2, “Small molecule ferroptosis inducers” (THE TRUSTEES OF COLUMBIA UNIVERSITY IN THE CITY OF NEW YORK, priority 2016, dated 2021)
Blank lines part the entries; values can stand above or below the molecule they belong to.

Experiments:
HT-1080 cells [1] = assay: Cell viability assay (Alamar Blue), lethal compounds with or without modulators; type: cell-based; conditions: for effect on FIN56 lethality: modulator cotreatment or pretreatment; for effect of ferroptosis inhibitors (α-tocopherol, deferoxamine) on lethality: cotreatment; for ferroptosis-inducing activity of FIN56 analogs: HT-1080, 48 hrs
Protocol: 1,000 cells per 36 μl were seeded in each well in 384-well plates. Lethal compounds were dissolved, and a twofold, 12-point dilution series was prepared in DMSO. Compound solutions were further diluted with media at 1:25, and 4 μl per well of the diluted solutions was added to cell cultures immediately after cells were seeded. […] When other cell-death-modulating compounds (100 nM sodium selenite, 1 μM cerivastatin, 100 μg/mL mevalonic acid) were used in cotreatments, they were supplemented to cell culture for 24 h before lethal compounds were added to cell culture, after which cells were further incubated for 24 h at 37° C. under 5% CO2. On the day of the viability measurement, we added 10 μl per well of 50% Alamar Blue diluted in media (Life Technologies) and further incubated the cells at 37° C. for 6 h. Fluorescence intensity (excitation/emission: 530/590) was measured with a Victor 3 plate reader (PerkinElmer), and the normalized viability was calculated as VL=(IL−I0)/(IV−I0), where VL, I0, IV, and IL are the normalized viability and the raw fluorescence intensities from the wells containing media, cells treated with a vehicle (negative control), and cells with the lethal compound (L), respectively. When the effect of a chemical modulator (M) on L was calculated, we instead used the equation VL|M=(IM,L−I0)/(IM,V−I0), where VL|M, IM,L and IM,V are the normalized viability, and fluorescence intensity from cells treated with […], respectively. The viability was typically measured in biological triplicate unless otherwise specified. A representative dose-response curve, the mean and standard error of normalized viability from one replicate were plotted. […]

GPX4 = assay: Western blotting of GPX4 protein abundance; type: cell-based, human; conditions: for effect on FIN56-induced decrease of GPX4 protein abundance: 5 μM FIN56
Protocol: Seeded 300,000 cells (HT-1080 or BJeLR) per well in six-well plates. For cotreatment, ferroptosis inducers (10 μM erastin for 11 h, 0.5 μM (1S, 3R)-RSL3 for 2 h, or 5 μM FIN56) and 100 μM α-tocopherol were added to cell culture at the same time, and cells were then incubated for 10 h (FIG. 2E). When other death-modulating compounds (100 nM sodium selenite, 1 μM cerivastatin, 100 μg/mL mevalonic acid, 30 μM C75, or 2 μM cerulenin) were used in cotreatments, cells were pre-incubated with the modulators for 24 h before being treated with ferroptosis inducers for 6 h. Cell lysis, SDS-PAGE and protein transfer to PVDF membrane were performed as previously described (Dixon et al. 2012). We used the following antibodies: anti-human α-tubulin (Santa Cruz Biotechnology, sc-32293, 1:10,000 dilution), anti-human GPX4 (Abcam, ab41787, 1:2,000 dilution), anti-human GPX1 (R&D Systems, AF3798, 1:1,000 dilution), and anti-human SQS (Abcam, ab109723 for full-length, ab195046 for truncated, both at 1:1,000 dilution). Secondary antibodies were from LI-COR (1:3,000 dilution). The PVDF membranes labeled with primary and secondary antibodies were scanned using an Odyssey Imaging System (LI-COR). Experiments were performed in biological triplicates, and the mean±s.e. of intensity was plotted.

HT-1080 = assay: Modulatory profiling: Alamar Blue viability, lethal compound cotreated with death modulator (EC50, AUC); type: cell-based; set-up: AUC, modulator HT.3MA / AUC, modulator HT.ALLN / AUC HT.ATA / AUC HT.ActD / AUC HT.BHA / AUC HT.BHT / AUC HT.BocD / AUC HT.CHX / AUC HT.Co2+ / AUC HT.DPQ / AUC HT.EGTA / AUC HT.Lmim / AUC HT.NAD+ / AUC HT.Nec-1 / AUC HT.SP600125 / AUC HT.TLCK / AUC HT.U0126: unit not given beside the values
BJeLR = assay: as above; type: cell-based, human; set-up: AUC, modulator BJ.Gd3+ / AUC, modulator BJ.LNAME / AUC, modulator BJ.Lmin / AUC, modulator BJ.3MA / AUC, modulator BJ.ALLN / AUC, modulator BJ.Boc D / AUC, modulator BJ.CHX / AUC, modulator BJ.Co2+ / AUC, modulator BJ.Nec-1 / AUC, modulator BJ.Pepstatin / AUC, modulator BJ.TLCK / AUC, modulator BJ.atoc / AUC, modulator BJ.trolox / AUC, modulator BJ.zVAD: unit not given beside the values; conditions: BJeLR cells, modulatory profile value (AUC)
[2] = Cobalt (II) binding assay in vitro (absorbance spectrum); conditions: absorbance 300-700 nm
Protocol: For each cluster I compound (CIL13, −52, and −64), prepared two-fold dilution series with DMSO. We added 30 μL per well of either water or 10 μM cobalt (II) chloride solution to each well of a 384-well plate. Dilution series of each compound in DMSO were added by 10 μL per well. After solutions had been mixed by shaking of the plate using a Victor 3 plate reader (PerkinElmer), absorbance was scanned between 300 and 700 nm for each compound. Finally the following Absorbance value for each compound was plotted (see FIG. 9B):
[formula] where Abs is the absorbance at each wavelength. Search of Commercially Available Structural Analogs of CIL41/70.

HT-1080 cells [3] = assay: Analysis of lipid ROS generation (C11-BODIPY 581/591 flow cytometry); type: cell-based
Protocol: Cells were treated with test compounds, trypsinized, pelleted, and washed once with PBS. For lipophilic or aqueous ROS detection, cells were re-suspended in Hanks' Balanced Salt Solution (HBSS; […] Cells were then pelleted, re-suspended in 500 μL HBSS, strained through a 40-μm cell strainer (BD Falcon), and analyzed using a BD Accuri C6 flow cytometer (BD Biosciences). Both dyes were measured in the FL1 channel. Experiments were done in biological triplicates.

SMILES: C=C(CC[C@]12O[C@H](C(=O)O)[C@@](O)(C(=O)O)[C@](C(=O)O)(O1)[C@H](OC(=O)/C=C/[C@@H](C)C[C@@H](C)CC)[C@H]2O)[C@@H](OC(C)=O)[C@H](C)Cc1ccccc1 [zaragozic acid A]
effect on FIN56 lethality (HT-1080 cells [1]; HT-1080 cells): suppressed FIN56 lethality

SMILES: COC(=O)c1ccc([C@H]2c3[nH]c4ccccc4c3C[C@H](C(=O)OC)N2C(=O)CCl)cc1 [(1S, 3R)-RSL3]
suppression of lethality by mevalonate-pathway modulators (FPP, YM-53601, idebenone) and α-tocopherol (HT-1080 cells [1]; HT-1080 cells, modulatory profiling scheme): potently suppressed by all the compounds
abundance of GPX4 protein (GPX4; BJeLR, cotreatment with 100 μM α-tocopherol, 10 h, FIN56 5 μM): Neither erastin nor (1S, 3R)-RSL3 affected the abundance of GPX4 to the same extent as FIN56

SMILES: C[C@H]1O[C@@H](O[C@H]2[C@@H](O)C[C@H](O[C@H]3[C@@H](O)C[C@H](O[C@H]4CC[C@@]5(C)[C@H](CC[C@@H]6[C@@H]5C[C@@H](O)[C@]5(C)[C@@H](C7=CC(=O)OC7)CC[C@]65O)C4)O[C@@H]3C)O[C@@H]2C)C[C@H](O)[C@@H]1O [digoxin, Digoxin]
effect on FIN56 lethality (HT-1080 cells [1]; HT-1080 cells): enhanced FIN56 lethality

binding to cobalt (II) in vitro [2]: bound to cobalt (II) in vitro
SMILES: C/C(=N\Nc1ncc(Cl)cc1Cl)c1ccccn1 [CIL64]
AUC HT.ATA (HT-1080; HT-1080, modulator ATA): 0.1979
AUC HT.ActD (HT-1080; HT-1080, modulator ActD): 0.04802
AUC HT.BHA (HT-1080; HT-1080, modulator BHA): −0.1469
AUC HT.BHT (HT-1080; HT-1080, modulator BHT): −0.3128
AUC HT.BocD (HT-1080; HT-1080, modulator BocD): −0.1078
AUC HT.CHX (HT-1080; HT-1080, modulator CHX): 0.06685
AUC HT.Co2+ (HT-1080; HT-1080, modulator Co2+): 0.4161
AUC HT.CspA (HT-1080; HT-1080, modulator CspA): 0.08661
AUC HT.DPQ (HT-1080; HT-1080, modulator DPQ): −0.135
AUC HT.EGTA (HT-1080; HT-1080, modulator EGTA): 0.1842
AUC HT.Gd3+ (HT-1080; HT-1080, modulator Gd3+): −0.0263
AUC HT.LNAME (HT-1080; HT-1080, modulator LNAME): <0.2159
AUC HT.Lmim (HT-1080; HT-1080, modulator Lmim): −0.2705
AUC HT.NAD+ (HT-1080; HT-1080, modulator NAD+): −0.1971
AUC HT.NMMA (HT-1080; HT-1080, modulator NMMA): −0.1742
HT.atoc (AUC) (HT-1080; HT-1080, modulator atoc): −0.06249
HT.bCarotene (AUC) (HT-1080; HT-1080, modulator bCarotene): 0.1654
HT.deferox (AUC) (HT-1080; HT-1080, modulator deferox): 0.127
HT.digoxin (AUC) (HT-1080; HT-1080, modulator digoxin): 0.0348
HT.trolox (AUC) (HT-1080; HT-1080, modulator trolox): −0.08079
HT.zVAD (AUC) (HT-1080; HT-1080, modulator zVAD): 0.05557
effect of cobalt (II) on lethality (HT-1080; modulatory profiles, CoCl2 supplementation): inhibited by cobalt (II)
AUC, modulator BJ.3MA (BJeLR; lethal compound cotreated with modulator 3MA): 0.02465
AUC, modulator BJ.ALLN (BJeLR; lethal compound cotreated with modulator ALLN): 0.0142
AUC, modulator BJ.Boc D (BJeLR; lethal compound cotreated with modulator Boc D): 0.01108
AUC, modulator BJ.CHX (BJeLR; lethal compound cotreated with modulator CHX): 0.04712
AUC, modulator BJ.Co2+ (BJeLR; lethal compound cotreated with modulator Co2+): 0.9402
AUC, modulator BJ.DPQ (BJeLR; lethal compound cotreated with modulator DPQ): 0.009397
AUC, modulator BJ.Gd3+ (BJeLR; lethal compound cotreated with modulator Gd3+): 0.02721
AUC, modulator BJ.LNAME (BJeLR; lethal compound cotreated with modulator LNAME): 0.03249
AUC, modulator BJ.Lmin/NAD+ (BJeLR; lethal compound cotreated with modulator Lmin/NAD+): 0.0757
AUC, modulator BJ.Lmin (BJeLR; lethal compound cotreated with modulator Lmin): 0.02777
AUC, modulator BJ.NAD+ (BJeLR; lethal compound cotreated with modulator NAD+): 0.1422
AUC, modulator BJ.NMMA (BJeLR; lethal compound cotreated with modulator NMMA): 0.001966
AUC, modulator BJ.Nec-1 (BJeLR; lethal compound cotreated with modulator Nec-1): 0.05533
AUC, modulator BJ.Pepstatin (BJeLR; lethal compound cotreated with modulator Pepstatin): 0.04262
AUC, modulator BJ.TLCK (BJeLR; lethal compound cotreated with modulator TLCK): 0.06508

SMILES: CC(C)=CCC/C(C)=C/CC/C(C)=C/COP(=O)(O)OP(=O)(O)O.N.N.N [FPP, farnesyl-PP]
effect on FIN56 lethality (HT-1080 cells [1]; HT-1080 cells): suppressed the lethality of FIN56

SMILES: N[C@@H]1CCCN(c2c(/C=C3\SC(=O)NC3=O)cccc2-c2ccccc2)C1 [AZD-1208]
effect of ferroptosis inhibitors (α-tocopherol, deferoxamine) on lethality (HT-1080 cells [1]; HT-1080 cells): the lethality was not suppressed by αToc

SMILES: O=[Se]([O-])[O-].[Na+].[Na+] [selenite, sodium selenite]
effect on FIN56 lethality (HT-1080 cells [1]; HT-1080 cells): suppressed FIN56 lethality

SMILES: F/C(COc1ccc2c(c1)[nH]c1ccccc12)=C1/CN2CCC1CC2 [YM-53601]
effect on FIN56 lethality (HT-1080 cells [1]; HT-1080 cells): suppressed FIN56 lethality

SMILES: CN1CCCN(C(=O)c2cccc(-c3ccc(/C=C4/C(=O)Nc5ccc(Cl)cc54)o3)c2)CC1 [CX-6258]
effect of ferroptosis inhibitors (α-tocopherol, deferoxamine) on lethality (HT-1080 cells [1]; HT-1080 cells): the lethality was not suppressed by αToc

SMILES: O=S(=O)(NC1CCOCC1)c1ccc2c(c1)C(=NO)c1cc(S(=O)(=O)NC3CCOCC3)ccc1-2 [SRS8-18, 9-(hydroxyimino)-N2,N7-bis(tetrahydro-2H-pyran-4-yl)-9H-fluorene-2,7-disulfonamide]
ferroptosis-inducing activity of FIN56 analogs (HT-1080 cells [1]): complete loss of activity

SMILES: Cc1c(C)c2c(c(C)c1O)CC[C@@](C)(CCC[C@H](C)CCC[C@H](C)CCCC(C)C)O2 [α-tocopherol]
effect on staurosporine-induced cell death (HT-1080 cells [1]): suppressed staurosporine-induced cell death
effect on lipid ROS generation after FIN56 treatment (HT-1080 cells [3]): inhibited lipid ROS generation after FIN56 treatment
effect on FIN56-induced decrease of GPX4 protein abundance (GPX4): not inhibited

SMILES: COC1=C(OC)C(=O)C(CCCCCCCCCCO)=C(C)C1=O [idebenone]
effect on staurosporine-induced cell death (HT-1080 cells [1]): enhanced it
effect on FIN56 lethality (HT-1080 cells [1]; HT-1080 cells): the only suppressor of FIN56-induced ferroptosis
effect on lipid ROS generation after FIN56 treatment (HT-1080 cells [3]): inhibited lipid ROS generation after FIN56 treatment
effect on FIN56-induced decrease of GPX4 protein abundance (GPX4): did not block the decrease in GPX4 protein abundance

SMILES: CCCCCCCCCCCCCCOc1ccc(C(=O)O)o1 [TOFA]
effect on FIN56 lethality (HT-1080 cells [1]; HT-1080 cells): potent suppressor of FIN56
effect on lipid ROS generation after FIN56 treatment (HT-1080 cells [3]): suppressed lipid ROS generation after FIN56 treatment
effect on FIN56-induced decrease of GPX4 protein abundance (GPX4): inhibited the loss of GPX4

SMILES: O=S(=O)(NC1CCOCC1)c1ccc2c(c1)C(=NOCCOCCOCCO)c1cc(S(=O)(=O)NC3CCOCC3)ccc1-2 [SRS11-66, 9-(2-(2-(2-hydroxyethoxy)ethoxy)ethoxyimino)-N2,N7-bis(tetrahydro-2H-pyran-4-yl)-9H-fluorene-2,7-disulfonamide]
ferroptosis-inducing activity of FIN56 analogs (HT-1080 cells [1]): complete loss of activity
